# Measured values reported in PMC5218480 (PLoS ONE, 2017).
# System: MV-4-11 cells
# Assay: Gene expression microarray analysis (Affymetrix PrimeView) and GSEA
# Format: cell-based, human
# Set-up: RFU PODN (11730768_x_at) / Fold change /veh PODN (11730768_x_at) / RFU LINC00158 (11744669_a_at) / Fold change /veh LINC00158 (11744669_a_at) / RFU DUSP10 (11751237_a_at) / Fold change /veh DUSP10 (11751237_a_at) / RFU ID3 (11757404_x_at) / Fold change /veh ID3 (11757404_x_at) / RFU PLEKHG5 (11737974_s_at) / Fold change /veh PLEKHG5 (11737974_s_at) / RFU LRRC4B (11730491_at) / Fold change /veh LRRC4B (11730491_at) / RFU GIMAP4 (11747438_a_at) / Fold change /veh GIMAP4 (11747438_a_at) / RFU KRT8 (11758183_x_at) / Fold change /veh KRT8 (11758183_x_at) / RFU CNN1 (11734310_a_at) / Fold change /veh CNN1 (11734310_a_at) / RFU VPS37D (11726825_at) / Fold change /veh VPS37D (11726825_at) / RFU C10orf10 (11716522_x_at) / Fold change /veh C10orf10 (11716522_x_at) / RFU KIR2DL2 /// KIR2DL4 /// KIR2DL5A /// KIR2DL5B /// KIR2DS1 /// KIR2DS2 /// KIR2DS3 /// KIR2DS4 /// KIR3DL3 /// KIR3DL3 /// KIR3DS1 (11738374_at) / Fold change /veh KIR2DL2 /// KIR2DL4 /// KIR2DL5A /// KIR2DL5B /// KIR2DS1 /// KIR2DS2 /// KIR2DS3 /// KIR2DS4 /// KIR3DL3 /// KIR3DL3 /// KIR3DS1 (11738374_at) / RFU C1QL1 (11718748_at) / Fold change /veh C1QL1 (11718748_at) / RFU TMPRSS4 (11747572_a_at) / Fold change /veh TMPRSS4 (11747572_a_at) / RFU HAMP (11756126_x_at) / Fold change /veh HAMP (11756126_x_at) / RFU RNFT2 (11725882_a_at) / Fold change /veh RNFT2 (11725882_a_at) / RFU NR4A2 (11747474_a_at) / Fold change /veh NR4A2 (11747474_a_at) / RFU ABCC12 (11746883_a_at) / Fold change /veh ABCC12 (11746883_a_at) / RFU TMEM136 (11760407_x_at) / Fold change /veh TMEM136 (11760407_x_at) / RFU CLDN22 /// WWC2 (11732394_at) / Fold change /veh CLDN22 /// WWC2 (11732394_at) / RFU HLA-DPB1 (11760878_x_at) / Fold change /veh HLA-DPB1 (11760878_x_at) / RFU SPINT1 (11716480_a_at) / Fold change /veh SPINT1 (11716480_a_at) / RFU GAP43 (11754022_s_at) / Fold change /veh GAP43 (11754022_s_at) / RFU A4GNT (11735810_at) / Fold change /veh A4GNT (11735810_at) / RFU PRB3 (11715151_x_at) / Fold change /veh PRB3 (11715151_x_at) / RFU TUBB4B (11761932_at) / Fold change /veh TUBB4B (11761932_at) / RFU CAPN14 (11732068_a_at) / Fold change /veh CAPN14 (11732068_a_at) / RFU TMCC2 (11721928_a_at) / Fold change /veh TMCC2 (11721928_a_at) / RFU IRGQ (11745062_a_at) / Fold change /veh IRGQ (11745062_a_at) / RFU FAM174B (11720279_a_at) / Fold change /veh FAM174B (11720279_a_at) / RFU TMPRSS4 (11748680_a_at) / Fold change /veh TMPRSS4 (11748680_a_at) / RFU FAM212B (11763350_a_at) / Fold change /veh FAM212B (11763350_a_at) / RFU PLEKHG5 (11743358_a_at) / Fold change /veh PLEKHG5 (11743358_a_at) / RFU ZSCAN30 (11745921_a_at) / Fold change /veh ZSCAN30 (11745921_a_at) / RFU CMKLR1 (11741424_a_at) / Fold change /veh CMKLR1 (11741424_a_at) / RFU LOC101060620 /// MAPK8IP1 (11723275_at) / Fold change /veh LOC101060620 /// MAPK8IP1 (11723275_at) / RFU SPTSSB (11747773_x_at) / Fold change /veh SPTSSB (11747773_x_at) / RFU PRSS12 (11739890_at) / Fold change /veh PRSS12 (11739890_at) / RFU BIN1 (11741810_x_at) / Fold change /veh BIN1 (11741810_x_at) / RFU WNT11 (11732464_a_at) / Fold change /veh WNT11 (11732464_a_at) / RFU C10orf10 (11716521_a_at) / Fold change /veh C10orf10 (11716521_a_at) / RFU C5orf56 (11738089_at) / Fold change /veh C5orf56 (11738089_at) / RFU CYB561 (11721691_x_at) / Fold change /veh CYB561 (11721691_x_at) / RFU ANKRD19P (11752326_a_at) / Fold change /veh ANKRD19P (11752326_a_at) / RFU OR2T12 /// OR2T33 /// OR2T8 (11738714_s_at) / Fold change /veh OR2T12 /// OR2T33 /// OR2T8 (11738714_s_at) / RFU VCAN (11748164_a_at) / Fold change /veh VCAN (11748164_a_at) / RFU JSRP1 (11732532_at) / Fold change /veh JSRP1 (11732532_at) / RFU KRTAP10-11 (11738290_x_at) / Fold change /veh KRTAP10-11 (11738290_x_at) / RFU MYO3A (11730013_a_at) / Fold change /veh MYO3A (11730013_a_at) / RFU EBF3 (11725865_a_at) / Fold change /veh EBF3 (11725865_a_at) / RFU CAMK2N1 (11719241_x_at) / Fold change /veh CAMK2N1 (11719241_x_at) / RFU C5orf56 (11738088_a_at) / Fold change /veh C5orf56 (11738088_a_at) / RFU OLFML3 (11715873_a_at) / Fold change /veh OLFML3 (11715873_a_at) / RFU LOC100653217 /// NTM (11731650_a_at) / Fold change /veh LOC100653217 /// NTM (11731650_a_at) / RFU MAPK11 (11762145_a_at) / Fold change /veh MAPK11 (11762145_a_at) / RFU FIZ1 (11724087_x_at) / Fold change /veh FIZ1 (11724087_x_at) / RFU OASL (11726364_x_at) / Fold change /veh OASL (11726364_x_at) / RFU SOX15 (11748057_x_at) / Fold change /veh SOX15 (11748057_x_at) / RFU CD79A (11719716_a_at) / Fold change /veh CD79A (11719716_a_at) / RFU HIST1H1D (11736915_at) / Fold change /veh HIST1H1D (11736915_at) / RFU CASKIN2 (11723855_a_at) / Fold change /veh CASKIN2 (11723855_a_at) / RFU LOC730098 (11760151_x_at) / Fold change /veh LOC730098 (11760151_x_at) / RFU OR4N2 (11742367_at) / Fold change /veh OR4N2 (11742367_at) / RFU PRRT2 (11749266_a_at) / Fold change /veh PRRT2 (11749266_a_at) / RFU SNX32 (11753110_a_at) / Fold change /veh SNX32 (11753110_a_at) / RFU CDHR5 (11726645_a_at) / Fold change /veh CDHR5 (11726645_a_at) / RFU RCAN1 (11760418_a_at) / Fold change /veh RCAN1 (11760418_a_at) / RFU FAM167A (11723789_a_at) / Fold change /veh FAM167A (11723789_a_at) / RFU FAM26E (11764081_at) / Fold change /veh FAM26E (11764081_at) / RFU ISYNA1 (11749810_s_at) / Fold change /veh ISYNA1 (11749810_s_at) / RFU ACY1 (11761880_at) / Fold change /veh ACY1 (11761880_at) / RFU 11764098_at / Fold change /veh 11764098_at / RFU SAMD14 (11745864_x_at) / Fold change /veh SAMD14 (11745864_x_at) / RFU NPB (11741838_a_at) / Fold change /veh NPB (11741838_a_at) / RFU TMPRSS6 (11731388_a_at) / Fold change /veh TMPRSS6 (11731388_a_at) / RFU KRTAP10-2 (11738614_at) / Fold change /veh KRTAP10-2 (11738614_at) / RFU ARHGAP8 /// PRR5-ARHGAP8 (11727945_x_at) / Fold change /veh ARHGAP8 /// PRR5-ARHGAP8 (11727945_x_at) / RFU KRTAP5-7 /// NADSYN1 (11734609_at) / Fold change /veh KRTAP5-7 /// NADSYN1 (11734609_at) / RFU RASL12 (11751679_a_at) / Fold change /veh RASL12 (11751679_a_at) / RFU CDKN2B (11736163_a_at) / Fold change /veh CDKN2B (11736163_a_at) / RFU PRF1 (11729649_at) / Fold change /veh PRF1 (11729649_at) / RFU, ZNF638 /// ZNF638-IT1 / Fold change vs veh, ZNF638 /// ZNF638-IT1 / RFU, PANK3 / Fold change vs veh, PANK3 / RFU, SH3YL1 / Fold change vs veh, SH3YL1 / RFU, ZEB2 / Fold change vs veh, ZEB2 / RFU, NRIP1 / Fold change vs veh, NRIP1 / RFU, PTTG1IP / Fold change vs veh, PTTG1IP / RFU, CAPN2 / Fold change vs veh, CAPN2 / RFU, MED14 / Fold change vs veh, MED14 / RFU, SNORA58 / Fold change vs veh, SNORA58 / RFU, C1orf63 / Fold change vs veh, C1orf63 / RFU, LRRFIP1 / Fold change vs veh, LRRFIP1 / RFU, NDUFAF7 / Fold change vs veh, NDUFAF7 / RFU, SLC12A2 / Fold change vs veh, SLC12A2 / RFU, IBTK / Fold change vs veh, IBTK / RFU, ESF1 / Fold change vs veh, ESF1 / Fold change vs veh, TMEM50B / RFU, TAOK1 / Fold change vs veh, TAOK1 / RFU, ACBD3 / Fold change vs veh, ACBD3 / RFU, TMA16 / Fold change vs veh, TMA16 / RFU, RWDD3 / Fold change vs veh, RWDD3 / RFU, BCAT1 / Fold change vs veh, BCAT1 / RFU, EDEM3 / Fold change vs veh, EDEM3 / RFU, TMEM33 / Fold change vs veh, TMEM33 / RFU, WDR75 / Fold change vs veh, WDR75 / RFU, AHCTF1 / Fold change vs veh, AHCTF1 / RFU, TFRC / Fold change vs veh, TFRC / RFU, ZDHHC17 / Fold change vs veh, ZDHHC17 / RFU, NOM1 / Fold change vs veh, NOM1 / RFU, ARL8B / Fold change vs veh, ARL8B / RFU, ZBTB11 / Fold change vs veh, ZBTB11 / RFU, TAMM41 / Fold change vs veh, TAMM41 / RFU, KIAA1704 /// LOC100996395 / Fold change vs veh, KIAA1704 /// LOC100996395 / RFU, ING1 / Fold change vs veh, ING1 / RFU, TRMT61B / Fold change vs veh, TRMT61B / RFU, FUBP3 / Fold change vs veh, FUBP3 / RFU, TP53 / Fold change vs veh, TP53 / RFU, TNKS2 / Fold change vs veh, TNKS2 / RFU, ZFP14 / Fold change vs veh, ZFP14 / RFU, ACTR2 / Fold change vs veh, ACTR2 / RFU, PPP3R1 / Fold change vs veh, PPP3R1 / RFU, PIK3R1 / Fold change vs veh, PIK3R1 / RFU, HNRNPA1 / Fold change vs veh, HNRNPA1 / RFU, RNF170 / Fold change vs veh, RNF170 / RFU, ZNF28 / Fold change vs veh, ZNF28 / RFU, RNGTT / Fold change vs veh, RNGTT / RFU, OGT / Fold change vs veh, OGT / RFU, BRD1 / Fold change vs veh, BRD1 / RFU, MARS / Fold change vs veh, MARS / RFU, ZNF655 / Fold change vs veh, ZNF655 / RFU, FAHD1 / Fold change vs veh, FAHD1 / RFU, BDP1 / Fold change vs veh, BDP1 / RFU, LRRCC1 / Fold change vs veh, LRRCC1 / RFU, ARID1A / Fold change vs veh, ARID1A / RFU, ZNF146 / Fold change vs veh, ZNF146 / RFU, ZNF330 / Fold change vs veh, ZNF330 / RFU, GPN3 / Fold change vs veh, GPN3 / RFU, C9orf123 / Fold change vs veh, C9orf123 / RFU, N4BP2L2 / Fold change vs veh, N4BP2L2 / RFU, ARFIP1 / Fold change vs veh, ARFIP1 / RFU, FAM179B / Fold change vs veh, FAM179B / RFU, BCL10 / Fold change vs veh, BCL10 / RFU, UHRF1BP1L / Fold change vs veh, UHRF1BP1L / RFU, BET1 / Fold change vs veh, BET1 / RFU, CNOT2 / Fold change vs veh, CNOT2 / RFU, ZNF268 / Fold change vs veh, ZNF268 / Fold change vs veh, ZNF507 / RFU, DGCR2 / Fold change vs veh, DGCR2 / RFU, WDSUB1 / Fold change vs veh, WDSUB1 / Fold change vs veh, HSP90B1 /// MIR3652 / RFU, ADSS / Fold change vs veh, ADSS / RFU, GK / Fold change vs veh, GK / RFU, ZNF148 / Fold change vs veh, ZNF148 / RFU, TAF9 / Fold change vs veh, TAF9 / RFU, SLC1A5 / Fold change vs veh, SLC1A5 / RFU, SLMO2 / Fold change vs veh, SLMO2 / RFU, ABCC4 / Fold change vs veh, ABCC4 / RFU, LOC101060439 /// RAP1B / Fold change vs veh, LOC101060439 /// RAP1B / RFU, RFX7 / Fold change vs veh, RFX7 / RFU, GTPBP10 / Fold change vs veh, GTPBP10 / RFU, CNEP1R1 / Fold change vs veh, CNEP1R1 / RFU, BIVM-ERCC5 /// ERCC5 / Fold change vs veh, BIVM-ERCC5 /// ERCC5 / RFU, ILF3 / Fold change vs veh, ILF3 / RFU 11762660_at / Fold change /veh 11762660_at / RFU VCAN (11757783_s_at) / Fold change /veh VCAN (11757783_s_at) / RFU DDX43 (11728927_at) / Fold change /veh DDX43 (11728927_at) / RFU KRT8 (11758188_x_at) / Fold change /veh KRT8 (11758188_x_at) / RFU NKD1 (11759106_at) / Fold change /veh NKD1 (11759106_at) / RFU SRD5A1 (11742802_a_at) / Fold change /veh SRD5A1 (11742802_a_at) / RFU TPSAB1 /// TPSB2 (11721975_s_at) / Fold change /veh TPSAB1 /// TPSB2 (11721975_s_at) / RFU GSTM3 (11746129_a_at) / Fold change /veh GSTM3 (11746129_a_at) / RFU IL23R (11737362_x_at) / Fold change /veh IL23R (11737362_x_at) / RFU TMEM51 (11727254_a_at) / Fold change /veh TMEM51 (11727254_a_at) / RFU PIWIL2 (11732686_x_at) / Fold change /veh PIWIL2 (11732686_x_at) / RFU ORM1 (11744905_x_at) / Fold change /veh ORM1 (11744905_x_at) / RFU CCDC152 (11743942_at) / Fold change /veh CCDC152 (11743942_at) / RFU ECM1 (11717891_a_at) / Fold change /veh ECM1 (11717891_a_at) / RFU IL23R (11748794_a_at) / Fold change /veh IL23R (11748794_a_at) / RFU TNFAIP8L3 (11732012_x_at) / Fold change /veh TNFAIP8L3 (11732012_x_at) / RFU MBOAT4 (11741988_at) / Fold change /veh MBOAT4 (11741988_at) / RFU 11764193_at / Fold change /veh 11764193_at / RFU TMEM53 (11763286_at) / Fold change /veh TMEM53 (11763286_at) / RFU MAGEB2 (11727129_at) / Fold change /veh MAGEB2 (11727129_at) / RFU TMEM200A (11744735_a_at) / Fold change /veh TMEM200A (11744735_a_at) / RFU CCDC152 (11751479_a_at) / Fold change /veh CCDC152 (11751479_a_at) / RFU FAM211A (11726209_a_at) / Fold change /veh FAM211A (11726209_a_at) / RFU RGS16 (11746705_a_at) / Fold change /veh RGS16 (11746705_a_at) / RFU VCAN (11755009_s_at) / Fold change /veh VCAN (11755009_s_at) / RFU RHOB (11743442_s_at) / Fold change /veh RHOB (11743442_s_at) / RFU RGS16 (11720943_a_at) / Fold change /veh RGS16 (11720943_a_at) / RFU RGS16 (11720944_at) / Fold change /veh RGS16 (11720944_at) / RFU, VPS4B / Fold change vs veh, VPS4B / RFU, CREB1 / Fold change vs veh, CREB1 / RFU, DNAJC13 / Fold change vs veh, DNAJC13 / RFU, GNAQ / Fold change vs veh, GNAQ / RFU, CDK5R1 / Fold change vs veh, CDK5R1 / RFU, ZRANB3 / Fold change vs veh, ZRANB3 / RFU, CUL4A / Fold change vs veh, CUL4A / RFU, CCNY / Fold change vs veh, CCNY / RFU, UFL1 / Fold change vs veh, UFL1 / RFU, COG3 / Fold change vs veh, COG3 / RFU, DIAPH2 / Fold change vs veh, DIAPH2 / RFU, SKA2 / Fold change vs veh, SKA2 / RFU, AFF3 / Fold change vs veh, AFF3 / RFU, LMF1 / Fold change vs veh, LMF1 / RFU, IPO11 / Fold change vs veh, IPO11 / RFU, DFFB / Fold change vs veh, DFFB / RFU, FOXP1 / Fold change vs veh, FOXP1 / RFU, CARD8 / Fold change vs veh, CARD8 / RFU, STRN3 / Fold change vs veh, STRN3 / RFU, ADK / Fold change vs veh, ADK / RFU, RASSF2 / Fold change vs veh, RASSF2 / RFU, WIPF1 / Fold change vs veh, WIPF1 / RFU, LARP1B / Fold change vs veh, LARP1B / RFU, RASA1 / Fold change vs veh, RASA1 / RFU, RB1 / Fold change vs veh, RB1 / RFU, PPFIA1 / Fold change vs veh, PPFIA1 / RFU, MAT2A / Fold change vs veh, MAT2A / RFU, CCT5 / Fold change vs veh, CCT5 / RFU, WDR92 / Fold change vs veh, WDR92 / RFU, CUX1 / Fold change vs veh, CUX1 / RFU, TTC7A / Fold change vs veh, TTC7A / RFU, TMEM135 / Fold change vs veh, TMEM135 / RFU, DEPTOR / Fold change vs veh, DEPTOR / RFU, CPM / Fold change vs veh, CPM / RFU, DNAJB6 / Fold change vs veh, DNAJB6 / RFU, CACNA2D3 / Fold change vs veh, CACNA2D3 / RFU, DTX4 / Fold change vs veh, DTX4 / RFU, TFCP2 / Fold change vs veh, TFCP2 / RFU, GMCL1 /// GMCL1P1 / Fold change vs veh, GMCL1 /// GMCL1P1 / RFU, AEBP2 / Fold change vs veh, AEBP2 / RFU, SNHG1 /// SNORD22 /// SNORD25 /// SNORD26 /// SNORD27 /// SNORD28 /// SNORD29 /// SNORD31 / Fold change vs veh, SNHG1 /// SNORD22 /// SNORD25 /// SNORD26 /// SNORD27 /// SNORD28 /// SNORD29 /// SNORD31 / Fold change (Aza/veh), C12orf56 (ProbeSet 11735607_a_at) / Fold change (ACY-1035/veh), C12orf56 (ProbeSet 11735607_a_at) / Fold change (Aza/veh), FGFR1OP (ProbeSet 11751329_s_at) / Fold change (ACY-1035/veh), FGFR1OP (ProbeSet 11751329_s_at) / Fold change (Aza/veh), VPS36 (ProbeSet 11739960_a_at) / Fold change (ACY-1035/veh), VPS36 (ProbeSet 11739960_a_at) / RFU SYPL1 (11715823_x_at) / Fold change /veh SYPL1 (11715823_x_at) / RFU IGFBP7 (11715501_s_at) / Fold change /veh IGFBP7 (11715501_s_at) / RFU REEP3 (11722064_at) / Fold change /veh REEP3 (11722064_at) / RFU IGLL1 (11728026_x_at) / Fold change /veh IGLL1 (11728026_x_at): dose or concentration left out as unconfirmed
# Conditions: MV-4-11 cells, 48 hours
structure (smiles),measurement,value
Nc1ncn([C@@H]2O[C@H](CO)[C@@H](O)[C@H]2O)c(=O)n1 [azacitidine],RFU GAP43 (11754022_s_at),65.19 RFU
